Data taken from patent US9539237B2, “Compositions and methods for drug-sensitization or inhibition of a cancer cell” (The Texas A&M University System, priority 2012, dated 2017).

Experiments:
[1] = test system: multi-drug resistant ovarian carcinoma cell line SK-OV3; test: Cell growth assay on SK-OV3 cells; format: cell-based, human
From the text: (§1) In these experiments, the following cell lines were used: CHOP-resistant NHL cell line G3, CHOP-sensitive NHL cell line CRL2631, the multi-drug resistant sarcoma cell line MES-SA-Dx5; multi-drug-resistant breast cancer cell line MDA-MB-231, multi-drug resistant ovarian carcinoma cell line SK-OV3, multi-drug resistant ovarian cancer cell line NCI/ADR-RES, drug-sensitive ovarian cancer cell line OVCAR-5, and multi-drug resistant ovarian cancer cell line OVCAR-3. […]

[2] = test system: CHOP-resistant G3 NHL cells; test: Cell growth assay (resazurin fluorescence) on G3 cells; format: cell-based, human; conditions: for Magnitude of potentiation in combination with doxorubicin: G3; for Fold increase in potency over DOX alone: lymphoma cell line G3
Description: Compositions were tested on CHOP-resistant G3 NHL cells that had been cultivated in RPMI medium for five days. Prior to assay, the cells were counted by haemocytometer and cell concentration standardized to 625,000 cells/ml. Test drugs were solubilized in 100% DMSO and then diluted to final assay concentration with 0.1M phosphate buffered saline (PBS) and a final DMSO concentration of 0.5%. […] The metabolic dye rezasurin was added to the wells of the assay plate at a final concentration of 20 μg/ml and the plates were incubated for an additional 24 hours. The plates were then read in a BMG Polarstar plate reader at wavelength (573-605) and the data plotted as OD versus increasing dilutions (i.e., decreasing total amounts) of rifabutin derivative concentration.
as §1

[3] = test system: multi-drug resistant ovarian cancer cell line OVCAR-3; test: Cell growth assay on OVCAR-3 cells; format: cell-based
From the text: (§2) In these experiments, the following cell lines were used: CHOP-resistant NHL cell line G3, CHOP-sensitive NHL cell line CRL2631, the multi-drug resistant sarcoma cell line MES-SA-Dx5; multi-drug-resistant breast cancer cell line MDA-MB-231, multi-drug resistant ovarian carcinoma cell line SK-OV3, multi-drug resistant ovarian cancer cell line NCI/ADR-RES, drug-sensitive ovarian cancer cell line OVCAR-5, and multi-drug resistant ovarian cancer cell line OVCAR-3.
(§3) Additional cell lines used include: ovarian cancer OVCAR-8. T lymphoblastoid leukemia MOLT-4, dexamethasone-resistant multiple myeloma MM.1R, myeloid leukemia cells HL-60, osteosarcoma cells U-2 OS, and myeloma RPMI 8226.

[4] = test system: multi-drug-resistant breast cancer cell line MDA-MB-231; test: Cell growth assay on MDA-MB-231 cells; format: cell-based
From the text: as §2, §3

[5] = test system: multi-drug resistant ovarian cancer cell line NCI/ADR-RES; test: Cell growth assay on NCI/ADR-RES cells; format: cell-based
From the text: as §2, §3

[6] = test system: multi-drug resistant sarcoma cell line MES-SA-Dx5; test: Cell growth assay on MES-SA-Dx5 cells; format: cell-based
From the text: as §2, §3

[7] = test system: G3 CHOP-resistant NHL cells; test: G3 tumor efficacy studies in SCID mice; format: in vivo; conditions: fourth study
Description: In a first efficacy study, 6-8 week old female SCID mice (7 mice per treatment arm) were injected subcutaneously on both flanks with 1×10^7 G3 CHOP-resistant NHL cells. Once palpable tumors (about […] size) appeared, therapies (CHOP or CHOP+rifabutin) were started. CHOP was administered at the maximum tolerated dose (cyclophosphamide, 40 mg/kg i.v.; doxorubicin, 3.3 mg/kg i.v.; vincristine, 0.5 mg/kg i.v.; and prednisone, 0.2 mg/kg orally daily for 5 d) weekly for 3 weeks. Rifabutin in an amount of 100 mg/kg was administered on the day of each CHOP treatment and 24-hours later by gavage. Mouse body weight and tumor size were monitored every two days and tumor size measured by caliper. The tumor volume formula (L*W*W)/2 was used to calculate tumor mass.
A second efficacy study was conducted where mice were treated before the appearance of palpable tumors. In that experiment, one week after transplantation of CHOP-resistant G3 cells, one group (7 mice) was treated with CHOP-only and a second group (8 mice) was treated with CHOP+rifabutin.
A third study was conducted in which mice injected with CHOP-resistant G3 cells received reduced dosages of CHOP in combination with 33 mg/kg rifabutin. CHOP+rifabutin was administered weekly beginning one week post-inoculation. Control mice were given no CHOP or rifabutin.
SCID mice were injected with CHOP-resistant G3 cells in the same manner as the first efficacy study above. Treatments began 2 weeks post-inoculation and were administered twice weekly.

[8] = test system: total intracellular ROS; test: Intracellular ROS by CellROX staining and flow cytometry; format: cell-based
From the text: Cells were then stained with the fluorescent ROS indicator, CellROX, and subjected to flow cytometry to quantitate total intracellular ROS.
The electron transport chain (ETC) is known to be a primary generator of ROS in the cell. Most of the ROS is generated by Complexes I and III of the ETC. Inhibition of Complex I results in electrons piling up and leaking to react with oxygen to produce ROS.
MDR/P-gp activity is closely associated with calcium status in the cell, so calcium modulators were tested for effects on ROS. […] Relatively Dox-sensitive lymphoma (CRL2631, 10S, WSU) and ovarian carcinoma (OVCAR8) and more Dox-resistant lymphoma (G3R, 10R, WSUR) and ovarian carcinoma (ADR) were treated with 10 uM […] for 2 hrs. […] Cells were co-stained with the cell-permeable red fluorescent ROS indicator, CellROX, and cell-permeable green fluorescent calcium indicator. Fluo-4AM, and then subjected to flow cytometry to quantitate changes in ROS and calcium levels.
All samples were analyzed at the same time in flow cytometry.

[9] = Dox-resistant G3 lymphoma cells, FIG. 40

Row | Compound | Magnitude of potentiation in combination with doxorubicin [1] | Magnitude of potentiation in combination with doxorubicin [2] | Fold increase in potency over DOX alone [2] | Magnitude of potentiation in combination with doxorubicin [3] | other results
1 | 4-deoxy-3,4[2-spiro-[1-(isobutylaminocarbonyl)-piperidin-4-yl]]-(1H)-imidazo-(2,5-dihydro)rifamycin S [RTI-102] | +++ (+++ potentiation greater than 5 fold increase) | ++ (++ potentiation between 2.1 to 5 fold increase) | – | – | –
2 | 4-deoxy-3,4[2-spiro-[1-(n-propyloxycarbonyl)-piperidin-4-yl]]-(1H)-imidazo-(2,5-dihydro)rifamycin S [RTI-78] | – | – | 29.5 fold | – | –
3 | 11-deoxy-11-amino-4-deoxy-3,4[2-spiro-[1-(isobutylaminocarbonyl)-piperidin-4-yl]]-(1H)-imidazo-(2,5-dihydro)rifamycin S [RTI-183] | – | – | 0.5 fold | + (+ potentiation between 1.2 to 2.0 fold increase) | –
4 | 11-deoxy-11-imino-4-deoxy-3,4[2-spiro-[1-(2-methoxyethyl)-piperidin-4-yl]]-(1H)-imidazo-(2,5-dihydro)rifamycin S [RTI-51] | + (+ potentiation between 1.2 to 2.0 fold increase) | – | 0.7 fold | + (+ potentiation between 1.2 to 2.0 fold increase) | –
5 | 11-deoxy-11-imino-4-deoxy-3,4[2-spiro-[1-(2-morpholinoethyl)-piperidin-4-yl]]-(1H)-imidazo-(2,5-dihydro)rifamycin S [RTI-53] | + (+ potentiation between 1.2 to 2.0 fold increase) | – | 0.2 fold | + (+ potentiation between 1.2 to 2.0 fold increase) | –
6 | 11-deoxy-11-imino-4-deoxy-3,4[2-spiro-[1-(isobutylaminocarbonyl)-piperidin-4-yl]]-(1H)-imidazo-(2,5-dihydro)rifamycin S [RTI-182] | ++ (++ potentiation between 2.1 to 5 fold increase) | + (+ potentiation between 1.2 to 2.0 fold increase) | 2.0 fold | + (+ potentiation between 1.2 to 2.0 fold increase) | Magnitude of potentiation in combination with doxorubicin [4]: ++ (++ potentiation between 2.1 to 5 fold increase)
7 | 11-deoxy-11-imino-4-deoxy-3,4[2-spiro-[1-(isobutyloxycarbonyl)-piperidin-4-yl]]-(1H)-imidazo-(2,5-dihydro)rifamycin S [RTI-81] | +++ (+++ potentiation greater than 5 fold increase) | +++ (+++ potentiation greater than 5 fold increase) | – | – | Magnitude of potentiation in combination with doxorubicin [5]: + (+ potentiation between 1.2 to 2.0 fold increase); Magnitude of potentiation in combination with doxorubicin [6]: ++ (++ potentiation between 2.1 to 5 fold increase); Longer life than doxorubicin only ([7]; DOX 3.3 mg/kg iv + RTI-81 10 mg/kg by gavage twice weekly): 27%; Mean lifespan ([7]; doxorubicin+RTI-81 group): 42.6; Median lifespan ([7]; doxorubicin+RTI-81 group): 42
8 | O=c1[nH]c2ccccc2n1C1CCN(Cc2ccc(-c3nc4cc5[nH]cnc5cc4nc3-c3ccccc3)cc2)CC1 [Akt Inhibitor VIII, reference compound] | – | – | – | – | Reversal of CHOP resistance ([2]; G3 cells, FIG. 30B): dose-dependent reversal of CHOP resistance
9 | CC(=O)OCOC(=O)CN(CC(=O)OCOC(C)=O)c1ccccc1OCCOc1ccccc1N(CC(=O)OCOC(C)=O)CC(=O)OCOC(C)=O [BAPTA-AM] | – | – | – | – | Induction of ROS [8, 9]: induced ROS
10 | CCNC(=O)N1CCC2(CC1)N=c1c3c(O)c4c(O)c(C)c5c(c4c1=N2)C(=N)[C@@](C)(O/C=C/[C@H](OC)[C@@H](C)[C@@H](OC(C)=O)[C@H](C)[C@H](O)[C@H](C)[C@@H](O)[C@@H](C)/C=C/C=C(/C)C(=O)N3)O5 [RTI-82, 11-deoxy-11-imino-4-deoxy-3,4[2-spiro-[1-(ethylaminocarbonyl)-piperidin-4-yl]]-(1H)-imidazo-(2,5-dihydro)rifamycin S] | – | – | 0.7 fold | – | Magnitude of potentiation in combination with doxorubicin [4]: +++ (+++ potentiation greater than 5 fold increase)
11 | CO[C@H]1/C=C/O[C@@]2(C)Oc3c(C)c(O)c4c(O)c(c5c(c4c3C2O)=NC2(CCN(CC(C)C)CC2)N=5)NC(=O)/C(C)=C\C=C\[C@H](C)[C@H](O)[C@@H](C)[C@@H](O)[C@@H](C)[C@H](OC(C)=O)[C@@H]1C (stereo partly drawn) [RTI-174, 11-deoxy-11-hydroxy-4-deoxy-3,4[2-spiro-[1-(2-methylpropyl)-piperidin-4-yl]]-(1H)-imidazo-(2,5-dihydro)rifamycin S] | + (+ potentiation between 1.2 to 2.0 fold increase) | ++ (++ potentiation between 2.1 to 5 fold increase) | – | + (+ potentiation between 1.2 to 2.0 fold increase) | Magnitude of potentiation in combination with doxorubicin [5]: + (+ potentiation between 1.2 to 2.0 fold increase)
12 | COC1C=COC2(C)Oc3c(C)c(O)c4c(c3C2N)C2=NC3(CCN(CC(C)C)CC3)NC2=C(NC(=O)C(C)=CC=CC(C)C(O)C(C)C(O)C(C)C(OC(C)=O)C1C)C4=O (stereo not drawn) [RTI-181, 11-deoxy-11-amino-4-deoxy-3,4[2-spiro-[1-(2-methylpropyl)-piperidin-4-yl]]-(1H)-imidazo-(2,5-dihydro)rifamycin S] | +++ (+++ potentiation greater than 5 fold increase) | +++ (+++ potentiation greater than 5 fold increase) | 5.5 fold | + (+ potentiation between 1.2 to 2.0 fold increase) | –
13 | C=C(C)[C@H]1Cc2c(ccc3c2O[C@@H]2COc4cc(OC)c(OC)cc4[C@@H]2C3=O)O1 [Rotenone] | – | – | – | – | Induction of ROS [8, 9]: induced ROS
14 | COC(=O)[C@H]1[C@H]2C[C@@H]3c4[nH]c5cc(OC)ccc5c4CCN3C[C@H]2C[C@@H](OC(=O)c2cc(OC)c(OC)c(OC)c2)[C@@H]1OC [reserpine] | – | – | – | – | Induction of ROS relative to control drugs ([8]; ADR and OVCAR8 cells, FIG. 41A): induced ROS; Induction of ROS ([8]; OVCAR8, ADR-RES and G3 cells, 2 hrs, 10 uM, FIG. 38): induced ROS
15 | antimycin A | – | – | – | – | Induction of ROS [8, 9]: not
